{
  "source": "patent US9475798B2",
  "about": "“Azetidine estrogen receptor modulators and uses thereof” (Genentech, Inc., priority 2013, dated 2016)",
  "key": {"[1]": {"tested_on": "tamoxifen resistant MCF-7 tumors", "assay": "Breast Cancer Model; Xenograft Assay (MCF-7 Derivative)", "format": "in vivo", "conditions": "female nu/nu mice", "method": "Female nu/nu mice (with supplemental 17-β Estradiol pellets; 0.72 mg; 60 day slow release) bearing MCF-7 tumors (mean tumor volume 200 mm^3) were treated with Tamoxifen (citrate) by oral gavage. Tumor volume (length×width^2/2) and body weight were monitored twice weekly. Following a significant anti-tumor response in which tumor volume remained static, evident tumor growth was first observed at approximately 100 days of treatment. At 120 days of treatment, tamoxifen dose was increased. Rapidly growing tumors were deemed tamoxifen resistant and selected for in vivo passage into new host animals. Tumor Fragments (˜100 mm^3/animal) from the tamoxifen resistant tumors were subcutaneously implanted into the right flank of female nu/nu mice (with 17-β Estradiol pellets (0.72 mg; 60 day slow release)). Passaged tumors were maintained under constant Tamoxifen selection, and Tumor volume (length×width^2/2) was monitored weekly. When tumor volume reached ˜150-250 mm^3, animals were randomized into treatment groups (mean tumor volume 200 mm^3) and tamoxifen treatment was terminated (except for a tamoxifen control arm). Animals were treated with Vehicle or Compound daily for 4 weeks. Tumor volume and body weight were monitored twice weekly for the duration of the study. At the conclusion of the treatment period; plasma and tumor samples were taken for pharmacokinetic and pharmacodynamic analyses, respectively."}, "MCF-7 cells": {"tested_on": "MCF-7 cells", "assay": "Breast Cancer Cell Viability Assay (MCF7, CellTiter-Glo);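 as to all read-outs here: CellTiter-Glo luminescence read-out, background from cell-free medium subtracted, viability expressed against untreated cells, ten-point 1:5 compound dilution series spanning 10 to 0.000005 µM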", "conditions": "for MCF7 Viability Assay: % Viability relative to Fulvestrant: 5 days, 100-{100*[(100-% viability of Example)/(100-% viability of Fulvestrant)]}; for IC50: read-out: MCF7 Viability Assay IC50, 5 days' compound exposure"}},
  "data": [
    {"molecule": "CC1=C(c2ccc(F)cc2)[C@H](c2ccc(OCCN3CC(CF)C3)cc2)Oc2ccc(O)cc21", "note": "(single isomer, unassigned) [Example 3]", "values": [
      {"measurement": "Number of Tumors Smaller at t = 27 days than at Start of study (t = 0 days)", "setting": "[1]; 10mpk oral dose each day", "value": "2/8"},
      {"measurement": "Number of Tumors Smaller at t = 27 days than at Start of study (t = 0 days)", "setting": "[1]; 30mpk oral dose each day", "value": "3/8"},
      {"measurement": "Number of Tumors Smaller at t = 27 days than at Start of study (t = 0 days)", "setting": "[1]; 100mpk oral dose each day", "value": "5/8"},
      {"measurement": "MCF7 Viability Assay: % Viability relative to Fulvestrant", "setting": "MCF-7 cells", "value": 8, "unit": "%"},
      {"measurement": "IC50", "setting": "MCF-7 cells", "value": 0.17, "unit": "nM"}
    ]},
    {"molecule": "CC1=C(c2cccc(O)c2)[C@H](c2ccc(OC[C@H](C)N3CC[C@@H](C)C3)cc2)Oc2ccc(O)cc21", "note": "[(S)-3-(3-Hydroxyphenyl)-4-methyl-2-(4-((S)-2-((R)-3-methylpyrrolidin-1-yl)propoxy)phenyl)-2H-chromen-6-ol, reference compound]", "values": [
      {"measurement": "Number of Tumors Smaller at t = 27 days than at Start of study (t = 0 days)", "setting": "[1]; 10mpk oral dose each day", "value": "0/8"},
      {"measurement": "Number of Tumors Smaller at t = 27 days than at Start of study (t = 0 days)", "setting": "[1]; 30mpk oral dose each day", "value": "1/8"},
      {"measurement": "Number of Tumors Smaller at t = 27 days than at Start of study (t = 0 days)", "setting": "[1]; 100mpk oral dose each day", "value": "1/8"},
      {"measurement": "MCF7 Viability Assay: % Viability relative to Fulvestrant", "setting": "MCF-7 cells", "value": 8, "unit": "%"},
      {"measurement": "IC50", "setting": "MCF-7 cells", "value": 0.13, "unit": "nM"}
    ]}
  ]
}
